Experimental data reported in patent publication US5534508A, “Cephem compounds and antimicrobial agents” (Katayama Seiyakusyo Co., Ltd., priority 1993, dated 1996).
In brackets after ≈: the same amount, converted by molar mass.

Key:
Type in all cases: cell-based
[1] = test system: M. luteus ATCC 9341; experiment: MIC against standard strains (Table 1), M. luteus ATCC 9341; details: Micrococcus luteus, ATCC9341, Muller-Hinton agar, overnight 37° C., read-out: MIC (minimum growth inhibitory concentration)
Description: (§1) The minimum growth inhibitory concentration (MIC, μg/ml) of the compounds for each of the 25 standard laboratory strains (standard strains) shown in Table 1 was determined in accordance with the standard method of the Japan Chemotherapical Society (Chemotherapy, 29, 76-79 (1981) under "Re-revision of the measuring methods of minimum growth inhibitory concentration (MIC)").
(§2) That is, by using each test strain cultured overnight at 37° C. in a Muller-Hinton broth, there was prepared a bacterial solution with a cell density of 1×10^6 CFU/ml in the same broth. The bacterial solution was inoculated into the Muller-Hinton agar media each containing respectively one test agent (i.e., compound) and, after overnight incubation at 37° C., the minimum concentration that inhibited growth of the bacteria was determined and expressed as MIC.
(§3) Staphylococcus aureus 167 and Staphylococcus aureus 195 used in the test were MRSA. CTM (cefotiam) and FMOX (flomoxef) were used as the control agents.

[2] = test system: P. aeruginosa NCTC 10490; experiment: MIC against standard strains (Table 1), P. aeruginosa NCTC 10490; details: Pseudomonas aeruginosa, NCTC10490, Muller-Hinton agar, overnight 37° C., read-out: MIC (minimum growth inhibitory concentration)
Description: as §1, §2, §3

[3] = test system: clinically isolated MRSA; experiment: Antibacterial potency against clinically isolated MRSA (47 strains); details: Staphylococcus aureus
Description: A test on the antibacterial potency against clinically isolated MRSA was conducted in the following way.
That is, using 47 strains of clinically isolated MRSA, MIC was determined for each of the test strains in accordance with the standard method of the Japan Chemotherapical Society as in Test Example 1, and the minimum growth inhibitory concentration which inhibited growth of 50% of the strains tested was expressed as MIC50 (μg/ml), and the minimum growth inhibitory concentration which inhibited growth of 90% of the strains tested was expressed as MIC90 (μg/ml).
In this test, FMOX was used as the control agent.

[4] = test system: S. epidemidis IAM 1296; experiment: MIC against standard strains (Table 1), S. epidemidis IAM 1296; details: Muller-Hinton agar, overnight 37° C., read-out: MIC (minimum growth inhibitory concentration)
Description: as §1, §2, §3

[5] = test system: E. coli CSH2(RK1); experiment: MIC against standard strains (Table 1), E. coli CSH2(RK1); details: Escherichia coli, read-out: MIC (minimum growth inhibitory concentration)
Description: as §1, §2, §3

[6] = test system: M. morganii IFO 3848; experiment: MIC against standard strains (Table 1), M. morganii IFO 3848; details: Morganella morganii, IFO3848, Muller-Hinton agar, overnight 37° C., read-out: MIC (minimum growth inhibitory concentration)
Description: as §1, §2, §3

[7] = test system: A. calcoaceticos T59; experiment: MIC against standard strains (Table 1), A. calcoaceticos T59; details: Muller-Hinton agar, overnight 37° C., read-out: MIC (minimum growth inhibitory concentration)
Description: as §1, §2, §3

[8] = test system: P. aeruginosa AKR17; experiment: MIC against standard strains (Table 1), P. aeruginosa AKR17; details: Pseudomonas aeruginosa, Muller-Hinton agar, overnight 37° C., read-out: MIC (minimum growth inhibitory concentration)
Description: as §1, §2, §3

[9] = test system: K. pneuminiae No. 42; experiment: MIC against standard strains (Table 1), K. pneuminiae No. 42; details: Muller-Hinton agar, overnight 37° C., read-out: MIC (minimum growth inhibitory concentration)
Description: as §1, §2, §3

[10] = test system: S. aureus 195; experiment: MIC against standard strains (Table 1), S. aureus 195 (MRSA); details: Staphylococcus aureus, Muller-Hinton agar, overnight 37° C., read-out: MIC (minimum growth inhibitory concentration)
Description: as §1, §2, §3

[11] = test system: S. aureus 209p JC-1; experiment: MIC against standard strains (Table 1), S. aureus 209p JC-1; details: Staphylococcus aureus, Muller-Hinton agar, overnight 37° C., read-out: MIC (minimum growth inhibitory concentration)
Description: as §1, §2, §3

[12] = test system: S. aureus 167; experiment: MIC against standard strains (Table 1), S. aureus 167 (MRSA); details: Staphylococcus aureus, Muller-Hinton agar, overnight 37° C., read-out: MIC (minimum growth inhibitory concentration)
Description: as §1, §2, §3

[13] = test system: E. coli CSH2(RE45); experiment: MIC against standard strains (Table 1), E. coli CSH2(RE45); details: Escherichia coli, read-out: MIC (minimum growth inhibitory concentration)
Description: as §1, §2, §3

[14] = test system: A. faecalis ATCC 3750; experiment: MIC against standard strains (Table 1), A. faecalis ATCC 3750; details: Alcaligenes faecalis, ATCC3750, Muller-Hinton agar, overnight 37° C., read-out: MIC (minimum growth inhibitory concentration)
Description: as §1, §2, §3

[15] = test system: B. subtilis ATCC 6633; experiment: MIC against standard strains (Table 1), B. subtilis ATCC 6633; details: Bacillus subtilis, ATCC6633, Muller-Hinton agar, overnight 37° C., read-out: MIC (minimum growth inhibitory concentration)
Description: as §1, §2, §3

[16] = test system: P. mirabilis IFO 3849; experiment: MIC against standard strains (Table 1), P. mirabilis IFO 3849; details: Proteus mirabilis, IFO3849, Muller-Hinton agar, overnight 37° C., read-out: MIC (minimum growth inhibitory concentration)
Description: as §1, §2, §3

[17] = test system: S. marcescens IAM 1184; experiment: MIC against standard strains (Table 1), S. marcescens IAM 1184; details: Serratia marcescens, IAM1184, Muller-Hinton agar, overnight 37° C., read-out: MIC (minimum growth inhibitory concentration)
Description: as §1, §2, §3

[18] = test system: S. aureus Smith; experiment: MIC against standard strains (Table 1), S. aureus Smith; details: Staphylococcus aureus, Muller-Hinton agar, overnight 37° C., read-out: MIC (minimum growth inhibitory concentration)
Description: as §1, §2, §3

[19] = test system: S. marcescens No. 16-2; experiment: MIC against standard strains (Table 1), S. marcescens No. 16-2; details: Serratia marcescens, NO.162, Muller-Hinton agar, overnight 37° C., read-out: MIC (minimum growth inhibitory concentration)
Description: as §1, §2, §3

[20] = test system: C. freundii ATCC 8090; experiment: MIC against standard strains (Table 1), C. freundii ATCC 8090; details: Citrobacter freundii, ATCC8090, Muller-Hinton agar, overnight 37° C., read-out: MIC (minimum growth inhibitory concentration)
Description: as §1, §2, §3

[21] = test system: P. cepacia CN 9113; experiment: MIC against standard strains (Table 1), P. cepacia CN 9113; details: Burkholderia cepacia, CN9113, Muller-Hinton agar, overnight 37° C., read-out: MIC (minimum growth inhibitory concentration)
Description: as §1, §2, §3

[22] = test system: K. pneuminiae IFO 3317; experiment: MIC against standard strains (Table 1), K. pneuminiae IFO 3317; details: Muller-Hinton agar, overnight 37° C., read-out: MIC (minimum growth inhibitory concentration)
Description: as §1, §2, §3

[23] = test system: P. vulugaris OX-19; experiment: MIC against standard strains (Table 1), P. vulugaris OX-19; details: Muller-Hinton agar, overnight 37° C., read-out: MIC (minimum growth inhibitory concentration)
Description: as §1, §2, §3

[24] = test system: E. cloacae ATCC 13407; experiment: MIC against standard strains (Table 1), E. cloacae ATCC 13407; details: Enterobacter cloacae, ATCC13407, Muller-Hinton agar, overnight 37° C., read-out: MIC (minimum growth inhibitory concentration)
Description: as §1, §2, §3

[25] = test system: E. cloacae Nek39; experiment: MIC against standard strains (Table 1), E. cloacae Nek39; details: Enterobacter cloacae, Muller-Hinton agar, overnight 37° C., read-out: MIC (minimum growth inhibitory concentration)
Description: as §1, §2, §3

[26] = test system: E. coli JC-2; experiment: MIC against standard strains (Table 1), E. coli JC-2; details: Escherichia coli, JC2, Muller-Hinton agar, overnight 37° C., read-out: MIC (minimum growth inhibitory concentration)
Description: as §1, §2, §3

NC(=O)c1ccc[n+](C/C=C/C2=C(C(=O)[O-])N3C(=O)[C@@H](NC(=O)/C(=N\O)c4csc(N)n4)[C@H]3SC2)c1 [Compound 18, 7β-[2-(2-aminothiazol-4-yl)-2-syn-hydroxyiminoacetamido]-3-[(E)-3-(3-carbamoylpyridinio)-1-propenyl]-3-cephem-4-carboxylate]
MIC [1]: 0.05 µg/mL (≈ 0.0944 µM) | MIC [2]: 1.56 µg/mL (≈ 2.95 µM) | MIC50 ([3]; concentration inhibiting growth of 50% of 47 clinically isolated MRSA strains): 2.63 µg/mL (≈ 4.97 µM) | MIC90 ([3]; concentration inhibiting growth of 90% of 47 clinically isolated MRSA strains): 22.2 µg/mL (≈ 41.9 µM) | MIC [4]: 0.05 µg/mL (≈ 0.0944 µM) | MIC [5]: 0.1 µg/mL (≈ 0.189 µM) | MIC [6]: 0.05 µg/mL (≈ 0.0944 µM) | MIC [7]: 3.13 µg/mL (≈ 5.91 µM) | MIC [8]: > 100 µg/mL | MIC [9]: 0.1 µg/mL (≈ 0.189 µM) | MIC [10]: 3.13 µg/mL (≈ 5.91 µM) | MIC [11]: 0.1 µg/mL (≈ 0.189 µM) | MIC [12]: 50 µg/mL (≈ 94.4 µM) | MIC [13]: 0.05 µg/mL (≈ 0.0944 µM) | MIC [14]: 0.78 µg/mL (≈ 1.47 µM) | MIC [15]: 0.1 µg/mL (≈ 0.189 µM) | MIC [16]: 0.1 µg/mL (≈ 0.189 µM) | MIC [17]: 0.05 µg/mL (≈ 0.0944 µM) | MIC [18]: 0.1 µg/mL (≈ 0.189 µM) | MIC [19]: 12.5 µg/mL (≈ 23.6 µM) | MIC [20]: 0.05 µg/mL (≈ 0.0944 µM) | MIC [21]: > 100 µg/mL | MIC [22]: 0.05 µg/mL (≈ 0.0944 µM) | MIC [23]: 0.1 µg/mL (≈ 0.189 µM) | MIC [24]: 0.1 µg/mL (≈ 0.189 µM) | MIC [25]: 6.25 µg/mL (≈ 11.8 µM) | MIC [26]: 0.05 µg/mL (≈ 0.0944 µM)
